Source: US8802635B2, “Antioxidant, anti-inflammatory, anti-radiation, metal chelating compounds and uses thereof” (Oneday—Biotech And Pharma Ltd., priority 2011, dated 2014)
Non-standard residues stand in square brackets, D forms with d. βAla = NCCC(=O)O

How the values were obtained:
[1] = tested on: p38 MAP Kinase; test: Inhibition of oxidative stress (auranofin)-induced p38 phosphorylation in SH-SY5Y cells; type: cell-based, Human; conditions: auranofin 5 μM
Description: (§1) Human neuroblastoma SH-SY5Y cells were maintained in Dulbecco's modified Eagle's medium (DMEM, Invitrogen) supplemented with 10% fetal bovine serum (Invitrogen), 100 μg/ml streptomycin and 100 U/ml penicillin G (Gibco). Cells were plated at a density of 6.25×10^4/cm^2 and incubated for 24 hours, after which they were exposed to different treatments.
(§2) SH-SY5Y cells were plated on 96-well plates and treated with Auranofin (AuF) (5 μM) for 30 min. Then the cells were washed with PBS and treated with either one of the peptides at the indicated concentrations. Twenty-four hours later, the cells were fixed with glutaraldehyde in final concentration of 0.5% for 10 min. Cells were washed 3 times with DDW dried over night, and washed once with borate buffer (0.1M, pH 8.5). The fixed cells were stained with 200 μl of 1% methylene blue dissolved in borate buffer for 1 hour. After extensive washing and drying, the color was extracted with 200 μl of 0.1 M HCl for 1 h at 37° C. and absorbance was read in spectrophotometer at 630 nm.
(§3) Twenty to thirty micrograms of protein samples were loaded on 10-12% SDS-PAGE gels. The proteins were then transferred electrophoretically to nitrocellulose (Whatman, Germany). The blots were blocked by incubation for 1 h at room temperature (RT) in TBS-T (25 mM Tris-HCl pH 7.4, 0.9% NaCl and 0.02% Tween-20) with 4% Difco skim milk (BD, USA), and incubated over-night at 4° C. with the primary antibody: pERK1/2 (Thr 202/Tyr204), mouse mAb, (1:6,000); p-SAPK/JNK (Thr183/Tyr185), rabbit mAb; SAPK/JNK, mouse mAb; p-p38MAP Kinase (Thr180/Tyr182), rabbit mAb; cleaved caspase 3, rabbit mAb. All antibodies were from Cell Signaling Tech. USA, used at 1:1000. Purified b Catenin, mouse mAb, (1:10,000; BD Transduction Laboratories, USA) diluted in 5% BSA, 0.04% Azide in TBS-T. Proteins were detected with Anti-Mouse or Anti-Rabbit IgG-HRP linked antibody (1:10,000; Cell Signaling, Tech. USA).

[2] = tested on: JNK (c-Jun N-terminal kinases); test: Inhibition of oxidative stress (auranofin)-induced JNK phosphorylation in SH-SY5Y cells; type: cell-based, Human; conditions: auranofin 5 μM
Description: as §1, §2, §3

[3] = tested on: anti-OVA serum IgE; test: Ovalbumin-induced hypersensitivity: serum anti-OVA IgE; type: in vivo, mice; conditions: for effect on OVA-induced elevation of anti-OVA serum IgE titer (in words) / rank order of reduction of anti-OVA serum IgE titer: 125 mg/kg i.p. on days 13, 14, 15, blood day 16
Description: (§4) Male BALB/c mice (6-8 weeks old) were housed under specific pathogen-free conditions and maintained on a 12-hour light/dark cycle, with food and water ad libitum. All materials and drugs were obtained from Sigma, Inc.
(§5) Mice in Groups A, B, C, and E (n=10 per group) were sensitized with intraperitoneal (i.p.) 200 μl of sterile PBS containing 100 μg ovalbumin (OVA) and 1.6 mg alum on days 0 and 7, and challenged with intraperitoneal (i.p.) 200 μl of sterile PBS containing 10 μg ovalbumin (OVA) on day 14 in order to induce an experimental model of allergic peritonitis. Mice in Group F (n=10) were injected with intraperitoneal (i.p) 200 μl sterile PBS (“sham” group, no OVA and no Alum).
(§6) Mice in Groups A, B, and C, were treated with 150 μl of sterile PBS containing peptides DY-66, DY-65 and DY-70, respectively, at a dose of 125 mg/kg on days 13, 14, and 15 via an i.p. route of administration.
(§7) Mice in Groups E and F were treated with 150 μl of sterile PBS on days 13, 14, and 15 via an i.p. route of administration. On day 14 the test articles (or PBS vehicle) were injected 30 minutes before injecting the OVA.
Blood taken on day 16 was tested for 1) serum anti-OVA IgE, 2) white blood cell count and differential (including absolute and percentage of eosinophils count). Serum was frozen at −80° C. for future optional blood tests.

[4] = tested on: IkappaBalpha; test: Cytoplasmic stability of I-kappaBalpha in lung, zymosan-induced inflammation; type: in vivo, mice; conditions: lung tissue, 24 hours after zymosan
Description: Male BALB/c mice were randomly allocated into the following experimental groups:
The peptides were administered by an intraperitoneal (i.p.) route of administration as described in Example 3.
The peptides were formulated in D5W as described in Example 3. The vehicle control was D5W.
At 24 hours after administration of zymosan, animals were euthanized and assessed for inflammation by an NF-κB analysis of lung tissue.
Tissues were homogenized and nuclear extracts prepared via centrifugation. ELISA for IkappaBalpha was performed, using a series of standards in order to define absolute concentrations.

[5] = tested on: HaCaT cells; test: Hydrogen peroxide-induced HaCaT keratinocyte cytotoxicity (MTT); type: cell-based; conditions: 90 μM hydrogen peroxide 30 min; MTT after 72 hours
Description: All five peptides were examined in this Example, and their activity was compared to the known CB3 peptide. HaCaT cells were seeded in 96-well plate at a concentration of 10×10^4 cells/ml for 24 hours. Then cells were incubated with the peptides at the indicated concentrations for 2.5 hours followed by washing with PBS and incubation with 90 μM hydrogen peroxide (without peptide) for 30 minutes. Cells were washed with PBS and incubated with culture medium containing peptide for 72 hours. Cell viability was tested by MTT. The effect of the peptides on cell viability was performed similarly without hydrogen peroxide exposure.

[6] = tested on: cellularity of the peritoneal exudates; test: Ovalbumin-induced hypersensitivity (allergic peritonitis): peritoneal cellularity; type: in vivo, mice; conditions: 125 mg/kg i.p. on days 13, 14, 15
Description: as §4, §5, §6, §7

[7] = tested on: HaCaT cells; test: UVB-induced cytotoxicity in HaCaT cells (MTT); type: cell-based; conditions: UVB 0.05 J/cm^2; MTT after 72 hours
Description: HaCaT cells were seeded in 96-wells plate (10×10^4/ml) and incubated in 37° C., 6% CO2 for 24 hours. Cells were incubated with the peptides at the indicated concentrations for 2.5 hours and washed (PBS). Then 100 μl PBS were added to each well followed by UVB irradiation (0.05 J/cm^2). Cells were washed with PBS and incubated with culture medium (DMEM, 100 μl) containing the peptides. MTT assay was carried out after 72 hours.

[8] = Metal chelation: copper binding by mass spectra (ESI); conditions: 0.83 mM peptide, 1.66 mM CuSO4, 1 hour room temperature
Description: All five peptides were examined for their ability to bind copper and ferric ions. 0.83 mM of each peptide were mixed with 1.66 mM of either FeCL3 or CuSO4. The mixtures were incubated for 1 hour at room temperature and further kept at ° 4 C until analysis. Samples were analyzed by mass spectra (ESI).

Row | Substance | IC50 [1] [µM] | IC50 [2] [µM] | effect on OVA-induced elevation of anti-OVA serum IgE titer (in words) [3] | rank order of reduction of anti-OVA serum IgE titer [3] | greatest reduction of the OVA-induced elevation of anti-OVA serum IgE ([3]; 125 mg/kg i.p., % of the OVA-induced elevation) | rank order of efficacy on cytoplasmic IkappaBalpha [4] | protection of cell viability after hydrogen peroxide exposure (in words) [5] | effect on OVA-induced elevation of peritoneal exudate cellularity (in words) [6] | rank order of reduction of peritoneal exudate cellularity [6] | protection against UVB-induced cytotoxicity (in words) [7] | copper binding (in words) [8]
1 | N-acetyl-Cys-Lys-Met-Cys-NH2 (Ac-CKMC-NH2; cysteine pairing not given here) [DY-65] | 36.7 | 32.3 | significantly reduced the elevation | DY-65>DY-70>DY-66 | ca. 60% | DY-70>DY-65>DY-66 | slightly elevated cell viability | significantly reduced the elevation | DY-65>DY-70>DY-66 | protective effect at low concentrations | binding was observed
2 | N-acetyl-Cys-βAla-His-Cys-NH2 (Ac-C[βAla]HC-NH2; cysteine pairing not given here) [DY-66] | 67 | 86.9 | significantly reduced the elevation | DY-65>DY-70>DY-66 |  | DY-70>DY-65>DY-66 | slightly elevated cell viability | significantly reduced the elevation | DY-65>DY-70>DY-66 | protective effect at low concentrations | low degree
